{"source": "patent US9180094B2", "about": "“High porosity materials, scaffolds, and method of making” (The Texas A&M University System, priority 2011, dated 2015)", "key": {"[1]": {"tested_on": "human mesenchymal stem cells", "test": "Cell viability with scaffold samples introduced into the medium", "type": "cell-based", "conditions": "scaffold prepared with 5 wt. % initiator in the medium, after 72 hours", "method": "Said initiators are typically those with decomposition temperature ranging from between about 25 to about 100° C. Examples include but are not limited to azobis-isobutyronitrile (AIBN) and benzoyl peroxide (BPO). Preliminary tack-free time studies of polyHIPE emulsions prepared with 5 wt. % AIBN or BPO indicated a […] cure time compared with emulsions prepared with 5 wt. % ammonium persulfate. The time to cure was about 7-12 hours with an ammonium persulfate initiator (aqueous phase free radical initiator) as compared with about 1.5 hours with the AIBN or BPO (organic soluble free radical initiator)."}, "cells": {"tested_on": "cells", "test": "Cytocompatibility of cells after addition of surfactant PGPR", "type": "cell-based", "conditions": "concentrations that permit emulsification (0.1, 1.0 or 5 wt. %)", "description": "FIG. 3C depicts cytocompability of cells after addition of the surfactant, PGPR, at 0.1 wt. %, 1.0 wt. % or 5 wt. %;"}, "[2]": {"tested_on": "human mesenchymal stem cells (hMSCs)", "test": "hMSC adhesion and spreading on scaffolds and films", "type": "cell-based", "conditions": "polyHIPE scaffolds fabricated with PGPR, AIBN initiated, between 3 and 24 hours after seeding", "method": "For three-dimensional scaffolds described herein, the behavior of the surfactant may be further modified to improve cell adhesion to the scaffold of cells, such as fibroblasts, mesenchymal stem cells, osteoblasts, chondrocytes, and other matrix formed cells. […] PolyHIPEs were prepared with PGPR and initiated with AIBN. When cured, as previously described, samples were sectioned using a precision diamond wafering saw. Prior to seeding with human mesenchymal stem cells (hMSCs), the polyHIPEs samples were soaked in 70% ethanol to sterilize, subjected to a wetting ladder to increase aqueous solution penetration, and incubated overnight in medium enhanced with 40 wt. % fetal bovine serum (FBS). The scaffolds were then seeded at a concentration of about 2×10^3 and 10×10^3 cells/cm^2. On scaffolds fabricated with PGPR, hMSC adhesion and spreading declined when measured between 3 and 24 hours after seeding. It was hypothesized that PGPR may be affecting protein adsorption and/or their conformation when attempting to localize on the polyHIPE scaffold. This was further analyzed on PFDMA films prepared with and without PGPR. The effect of PGPR on protein adsorption and/or conformation was confirmed at 24 hours, in which hMSC adhesion and spreading decreased on PGPR-PFDMA film specimens as compared with control (PFDMA alone) specimens. […]"}, "Macromer viscosity": {"test": "Macromer viscosity", "type": "physicochemical", "method": "Further described is a method of preparing a polyHIPE. In one form the polyHIPE is prepared with a biodegradable fumerate having ester linkages. One example is PFDMA. The method further comprises a two-step process. The first step produced an intermediate molecule as a diester intermediate. In one form the intermediate was bis-(1,2-hydroxypropyl)fumarate (FIG. 1A). The intermediate was then functionalized with methacrylate endgroups (FIG. 1B). With purification, the structure of the resulting formed material, PFDMA, was confirmed with ^1H NMR, as represented in FIG. 2. Integration ratio of methacryloyl protons to fumarate protons in the ^1H NMR spectra was confirmed and the formed structure was, in this example, a PFDMA as a single fumarate unit with two terminal methacrylate groups. The average functionalization was calculated to be greater than 80%. In some embodiments, functionalization was calculated to be at or about 83%. The methacrylate and fumarate groups provided sites for radical crosslinking as further described below. It is, in part, the crosslinking as described herein that allows cure of the HIPE at physiological temperatures."}}, "data": [{"compound": "CC(C)(C#N)N=NC(C)(C)C#N", "note": "[AIBN, azobis-isobutyronitrile]", "values": [{"measurement": "effect on cell viability", "setting": "[1]", "result": "Neither 5 wt. % AIBN or 5 wt. % BPO appeared to greatly effect cell viability"}]}, {"compound": "O=C(OOC(=O)c1ccccc1)c1ccccc1", "note": "[BPO, benzoyl peroxide]", "values": [{"measurement": "effect on cell viability", "setting": "[1]", "result": "Neither 5 wt. % AIBN or 5 wt. % BPO appeared to greatly effect cell viability"}]}, {"compound": "polyglycerol polyricinoleate [PGPR 4125]", "values": [{"measurement": "cytocompatibility with cells", "setting": "cells", "result": "cytocompatible"}, {"measurement": "hMSC adhesion and spreading on scaffolds", "setting": "[2]", "result": "declined"}]}, {"compound": "propylene fumarate dimethacrylate [PFDMA]", "values": [{"measurement": "viscosity", "setting": "Macromer viscosity", "result": "about 125 cP"}]}]}
